Experimental data published in paper PMC10215143, “D- and N-Methyl Amino Acids for Modulating the Therapeutic Properties of Antimicrobial Peptides and Lipopeptides” (Antibiotics, 2023).
Values after ≈ are worked out from the molar mass of the structure shown. Values joined by “and” are separate entries in the source; they are usually repeats but may differ in a detail not shown here. Identical values can stand only once. Like-named read-outs stand apart in the source and are kept apart here. Where a SMILES comes first, the peptide text is derived from it. [ ]: non-standard residue; d: D form. The star is where a group is joined. NMeF = CN[C@@H](Cc1ccccc1)C(=O)O; NMeK = CN[C@@H](CCCCN)C(=O)O; Decanoyl = CCCCCCCCCC(=O)*

Tests used:
Yeast = conditions: for MIC Average Yeast: 24 h; for TI Yeast, HC50/MIC average: first value of the cell, a single value holds for HC50 and IC50 (400 µM used); for TI Yeast, IC50/MIC average: second value of the cell, HeLa IC50 based
Description: Each inoculum was taken and the cellular concentration was adjusted to 2 × 10^3 CFU/mL in Sabouraud Dextrose Broth (SDB) (Biokar Diagnostics, Cedex, France). Next, 50 µL of these inocula was added to 50 µL of peptide solution in serial 2-fold dilutions. […] The MIC was considered the lowest peptide concentration that inhibited visible growth of each yeast strain. The test was conducted in triplicate.
(§1) The TI is defined as the relationship between the concentration that caused 50% of hemolysis (HC50) or a 50% reduction in HeLa cell viability and the MIC. Thus, higher TI values indicate greater antimicrobial specificity. […] The average MIC for each peptide against different microorganism groups was used to calculate the TI value.

HeLa cells = conditions: 24 h
Description: We assessed the cytotoxicity of the compounds synthesized using HeLa cells.
The 3–4,5-dimethylthiazol-2,5-biphenyl tetrazolium bromide (MTT) cell viability assay was used to assess the cytotoxic activity of synthetic compounds against the human HeLa line. HeLa cells were seeded in 96-well plates at 1 × 10^5 cells/well, in which the peptide solution was added at different concentrations (3.125–400 μM) for 24 h of incubation. Next, MTT reagent (Sigma-Aldrich, St. Louis, MO, USA) was added, and the cells were incubated for 2 h. Then, 100 μL of dimethylsulfoxide (DMSO) was added to each well to dissolve formazan crystals, and the plates were read at 595 nm.

S. aureus ATCC 25923 = format: cell-based, Staphylococcus aureus; conditions: ATCC 25923, 24 h
Description: (§2) The test was conducted in triplicate.

[1] = test system: S. aureus RM * SA1 (Methicillin-resistant Staphylococcus aureus); conditions: S. aureus RM * SA1 (MRSA)
C. tropicalis DBFIQ 3 = format: cell-based, Candida tropicalis; conditions: DBFIQ 3, 24 h
Description: (§3) Each inoculum was taken and the cellular concentration was adjusted to 2 × 10^3 CFU/mL in Sabouraud Dextrose Broth (SDB) (Biokar Diagnostics, Cedex, France). Next, 50 µL of these inocula was added to 50 µL of peptide solution in serial 2-fold dilutions. […] […] The test was conducted in triplicate.

Human erythrocytes = test: Hemolysis assay; format: cell-based; conditions: human erythrocytes 0.4% (v/v), 37 °C, 60 min, 6.25 to 400 µM
Description: Hemolytic activity was determined using red blood cells and the hemoglobin released was measured at 405 nm. The percentage of hemolysis corresponding to the synthetic compounds is shown in Figure 1 while the HC50 values are provided in Table 3. […] Substitutions by N-methyl and D-amino acids reduced the hemolytic activity of the peptides and lipopeptides. […] For all the peptides and most of the lipopeptides, the HC50 values exceeded 400 μM. Indeed, the HC50 values were lower only for C10:0-A2(9-NMeLys) and C10:0-A2, which were around 300 and 200 μM, respectively.
Erythrocyte lysis was determined using the following previously optimized protocols. Human erythrocytes from a healthy voluntary donor were isolated by centrifugation (3000 rpm for 10 min) after washing three times with Physiological Solution (PS). Erythrocyte solutions were prepared at a concentration of 0.4% (v/v) in PS. Test tubes containing 200 µL of erythrocyte solution were incubated at 37 °C for 60 min with 200 µL of peptide solution at concentrations ranging from 6.25 to 400 µM. After centrifugation at 3000 rpm for 5 min, supernatant absorbance was measured at 405 nm. Lysis induced by 1% Triton X-100 was taken as a 100% reference value.

P. aeruginosa ATCC 27853 = format: cell-based, Pseudomonas aeruginosa; conditions: ATCC 27853, 24 h
Description: as §2

E. coli ATCC 35218 = format: cell-based, Escherichia coli; conditions: ATCC 35218, 24 h
Description: as §2

C. albicans PEEC 2 = format: cell-based, Candida albicans; conditions: PEEC 2, 24 h
Description: as §3

Gram (−) bacteria = conditions: for MIC Average Bacteria Gram (−): average over Gram (−) strains; for TI Bacteria Gram (−), HC50/MIC average: first value of the cell, a single value holds for HC50 and IC50 (400 µM used); for TI Bacteria Gram (−), IC50/MIC average: second value of the cell, HeLa IC50 based
Description: (§4) The MIC against bacterial strains was determined by the modified broth microtiter dilution method, following the procedures proposed by R.E.W. Hancock Laboratory for testing antimicrobial peptides. The target strains Escherichia coli ATCC 35218, Pseudomonas aeruginosa ATCC 27853, Enterococcus faecalis ATCC 29212, and Staphylococcus aureus ATCC 25923 belong to the American Type Culture Collection (ATCC). The Methicillin-Resistant Staphylococcus aureus BSF FBCB1313 strain (MRSA) was provided by the Clinical Bacteriology Section of FBCB-UNL. All strains were activated by culture for 24 h at 37 °C in Mueller-Hinton Broth (MHB) (Biokar Diagnostics, Cedex, France). Each inoculum was taken and adjusted to a cellular concentration of 5 × 10^5 colony-forming units (CFU)/mL in diluted MHB. All the peptides were dissolved in bovine serum albumin buffer with the addition of 0.01% acetic acid; 100 µL of each inoculum was added to 11 µL of peptide solution in serial 2-fold dilutions and were incubated for 18–24 h at 37 °C. The MIC was the lowest peptide concentration that inhibited visible growth of each bacterial strain. The test was conducted in triplicate.
as §1

Gram (+) bacteria = conditions: for MIC Average Bacteria Gram (+): average over Gram (+) strains; for TI Bacteria Gram (+), HC50/MIC average: first value of the cell, a single value holds for HC50 and IC50 (400 µM used); for TI Bacteria Gram (+), IC50/MIC average: second value of the cell, HeLa IC50 based
Description: as §4, §1

E. faecalis ATCC 29212 = format: cell-based, Enterococcus faecalis; conditions: ATCC 29212, 24 h
Description: as §2

[2] = Critical micelle concentration by conductimetry in Milli-Q water; format: physicochemical; conditions: 25 °C
Description: On the other hand, acylation confers that the peptide has capacity to self-assemble into nanostructures, resulting in a surfactant-like structure, which may affect the extent of peptide insertion and disruption of bacterial membrane integrity. In this work, the CMC of the lipopeptides was determined by conductimetry in Milli-Q water. All the lipopeptides adopted a micellar assembly with CMC values ranging from 2.0 to 5.7 mM (Table 1). […] This effect appeared to be more important when substitution by an N-methyl amino acid was performed on amino acids located on the non-polar face of the amphipathic helix (CMC values of C10:0-A2(8-NMePhe) = 2.01 mM). For all the lipopeptides, the CMC values remained above the MIC values, which could indicate that these molecules interact with the cell membrane as monomers and, consequently, that this property would not be necessary for antimicrobial activity. This notion is in concordance with reports in the literature on short cationic lipopeptides.
A lipopeptide solution was prepared in Milli Q water, and the specific conductivity of each lipopeptide solution, in a concentration ranging from 0.06 to 18 mg/mL, was measured using a drop conductivity meter (HORIBA, Kyoto, Japan), at 25 °C. Conductivity values were plotted vs. lipopeptide concentration (mS × cm^−1 vs. mg/mL), and the CMC was graphically determined.

Row | SMILES | MIC Average Yeast (Yeast) [µM] | TI Yeast, HC50/MIC average (Yeast) | IC50 (HeLa cells) [µM] | MIC (S. aureus ATCC 25923) [µM] | MIC [1] [µM] | MIC (C. tropicalis DBFIQ 3) [µM] | HC50 ± SD (Human erythrocytes) [µM] | MIC (P. aeruginosa ATCC 27853) [µM] | MIC (E. coli ATCC 35218) [µM] | MIC (C. albicans PEEC 2) [µM] | MIC Average Bacteria Gram (−) (Gram (−) bacteria) [µM] | TI Bacteria Gram (−), HC50/MIC average (Gram (−) bacteria) | MIC Average Bacteria Gram (+) (Gram (+) bacteria) [µM] | TI Bacteria Gram (+), HC50/MIC average (Gram (+) bacteria) | MIC (E. faecalis ATCC 29212) [µM] | CMC [2] [mM] | TI Yeast, IC50/MIC average (Yeast) | TI Bacteria Gram (−), IC50/MIC average (Gram (−) bacteria) | TI Bacteria Gram (+), IC50/MIC average (Gram (+) bacteria) | IC50 (HeLa cells; read-out: IC50 ± SD, HeLa cells, MTT, 3.125–400 μM)
1 | CCCCCCCCCC(=O)N[C@H](C(=O)N[C@@H](CCCCN)C(=O)N[C@@H](CCC(N)=O)C(=O)N[C@H](C(=O)N(C)[C@@H](CCCCN)C(=O)N[C@@H](CCCCN)C(=O)N[C@@H](CC(C)C)C(=O)N[C@@H](Cc1ccccc1)C(=O)N[C@@H](CCCCN)C(=O)N[C@@H](CCCCN)C(N)=O)C(C)C)[C@@H](C)CC [C10:0-A2(5-NMeLys), C10:0-IKQV(NMe-K)KLFKK-NH2] (Decanoyl-IKQV[NMeK]KLFKK-NH2) | 179.5 (≈ 256 µg/mL) | 2.2 | > 400 | 2.8 (≈ 4 µg/mL) | 5.6 (≈ 7.99 µg/mL) | 179.5 (≈ 256 µg/mL) | >400 | 5.6 (≈ 7.99 µg/mL) | 2.8 (≈ 4 µg/mL) | 179.5 (≈ 256 µg/mL) | 4.2 (≈ 5.99 µg/mL) | 95.2 | 6.5 (≈ 9.28 µg/mL) | 61.5 | 11.2 (≈ 16 µg/mL) | 3.73 | – | – | – | –
2 | CCCCCCCCCC(=O)N[C@H](C(=O)N[C@@H](CCCCN)C(=O)N[C@@H](CCC(N)=O)C(=O)N[C@H](C(=O)N[C@@H](CCCCN)C(=O)N[C@@H](CCCCN)C(=O)N[C@@H](CC(C)C)C(=O)N[C@@H](Cc1ccccc1)C(=O)N(C)[C@@H](CCCCN)C(=O)N[C@@H](CCCCN)C(N)=O)C(C)C)[C@@H](C)CC [C10:0-A2(9-NMeLys), C10:0-IKQVKKLF(NMe-K)K-NH2] (Decanoyl-IKQVKKLF[NMeK]K-NH2) | 134.6 (≈ 192 µg/mL) | 2.2 | > 400 | 2.8 (≈ 4 µg/mL) | 2.8 (≈ 4 µg/mL) | 179.5 (≈ 256 µg/mL) | – | 0.7 (≈ 0.999 µg/mL) | 2.8 (≈ 4 µg/mL) | 89.7 (≈ 128 µg/mL) | 1.8 (≈ 2.57 µg/mL) | 165.8 | 3.7 (≈ 5.28 µg/mL) | 80.7 | 5.6 (≈ 7.99 µg/mL) | 3.90 | 3.0 | 222.2 | 108.1 | –
3 | CC(C)C[C@H](NC(=O)[C@H](CCCCN)NC(=O)[C@H](CCCCN)NC(=O)[C@H](Cc1ccccc1)N(C)C(=O)[C@H](CC(C)C)NC(=O)[C@H](CCCCN)NC(=O)[C@H](CCCCN)NC(=O)[C@H](Cc1ccccc1)N(C)C(=O)[C@H](CC(C)C)NC(=O)[C@@H](N)CCCCN)C(=O)N[C@@H](Cc1ccccc1)C(=O)N[C@@H](CCCCN)C(N)=O [TA4(3,7-NMePhe), KL(NMeF)KKL(NMeF)KKLFK-NH2] (H-KL[NMeF]KKL[NMeF]KKLFK-NH2; N-terminus assumed) | 80.2 (≈ 128 µg/mL) | 5.0 | 86.6 ± 7.35 | 5.0 (≈ 7.98 µg/mL) | 10.0 (≈ 16 µg/mL) | 80.2 (≈ 128 µg/mL) | >400 | 1.2 (≈ 1.91 µg/mL) | 5.0 (≈ 7.98 µg/mL) | 80.2 (≈ 128 µg/mL) | 3.1 (≈ 4.94 µg/mL) | 129.0 | – | 14.1 | 40.0 (≈ 63.8 µg/mL) | – | 1.1 | 27.9 | 3.1 | ~86 µM and 86 µM
